Legend:
[1] = biological target: T1, α1 kinase domain (α1-KD, residues 1–312) (Homo sapiens, UniProt Q13131); experiment: Activity of FLAG-tagged α1 kinase domain expressed in HEK293 cells; type: cell-based; conditions: 1 hr
T1 construct: amplifying residues 1-312 with an N-terminal FLAG-tag; expressed in transfected cells; host or cells: HEK293 (transient transfection, pcDNA5 FRT)
Source text: (§1) We next expressed an FLAG-tagged α1 kinase domain (α1-KD, residues 1–312) by transient transfection in HEK293 cells, treated the cells with various AMPK activators, and then assayed both the expressed α1-KD (precipitated using anti-FLAG) and endogenous full-length α1 complexes (precipitated using anti-α1 antibodies recognizing an epitope outside the α1-KD). […] This was also observed with A23187, as expected since this ionophore increases intracellular Ca^2+ and activates the alternate upstream kinase CaMKK2.
(§2) The α1-KD was precipitated using anti-FLAG and endogenous AMPK complexes using anti-α1 antibody, and activity determined. Results (mean ± SD, n = 2) are expressed relative to activities in DMSO controls. (B) Western blots (n = 2) using the indicated antibodies; samples from experiment in (A). (C) DNAs encoding FLAG-tagged AMPK-α1 (WT or AT mutant) were expressed by transient transfection in HEK293 cells, the cells treated with increasing concentrations of SU6656 for 1 hr, AMPK complexes precipitated with anti-FLAG, and activity measured. Results (mean ± SD, n = 3) are expressed relative to the DMSO control. […] Results (mean ± SD, n = 3) are expressed relative to the DMSO control. **p < 0.01, ***p < 0.001, ****p < 0.0001, ^†††p < 0.001; ns, not significant.
A plasmid encoding the AMPK-α2 kinase domain (α2-KD) was made by amplifying residues 1-310 with 5' BamH1 and 3' Xho1 sites, the resulting PCR product was cloned into pGEX6P2. Point mutations were generated using the Quikchange II site-directed mutagenesis kit (Stratagene) and confirmed by DNA sequencing.

human AMPK-α2 (WT) = human AMPK-α2 (WT) (Homo sapiens, UniProt P54646); experiment: AMPK activity of FLAG-tagged WT AMPK-α2 expressed in HEK293 cells; type: cell-based; conditions: SU6656 100 μM, phenformin 10 mM, A23187 10 μM, 1 hr
human AMPK-α2 (WT), sequence (P54646 whole entry, the tested form may be a part): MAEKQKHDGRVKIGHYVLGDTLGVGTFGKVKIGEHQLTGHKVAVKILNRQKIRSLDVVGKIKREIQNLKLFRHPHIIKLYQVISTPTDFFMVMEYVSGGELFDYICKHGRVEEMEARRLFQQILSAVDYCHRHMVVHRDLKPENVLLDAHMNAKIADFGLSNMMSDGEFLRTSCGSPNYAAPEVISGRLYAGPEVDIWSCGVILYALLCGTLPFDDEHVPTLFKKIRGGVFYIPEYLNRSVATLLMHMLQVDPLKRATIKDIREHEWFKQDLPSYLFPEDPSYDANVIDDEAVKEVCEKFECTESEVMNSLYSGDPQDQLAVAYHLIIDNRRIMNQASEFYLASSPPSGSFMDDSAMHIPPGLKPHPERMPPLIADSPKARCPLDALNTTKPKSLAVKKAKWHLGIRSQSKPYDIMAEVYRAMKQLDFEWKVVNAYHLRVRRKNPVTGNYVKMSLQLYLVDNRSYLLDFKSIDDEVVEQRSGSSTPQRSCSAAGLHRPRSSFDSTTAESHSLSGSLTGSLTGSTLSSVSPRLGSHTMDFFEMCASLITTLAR
human AMPK-α2 (WT), sequence (P54619 whole entry partner, the tested form may be a part): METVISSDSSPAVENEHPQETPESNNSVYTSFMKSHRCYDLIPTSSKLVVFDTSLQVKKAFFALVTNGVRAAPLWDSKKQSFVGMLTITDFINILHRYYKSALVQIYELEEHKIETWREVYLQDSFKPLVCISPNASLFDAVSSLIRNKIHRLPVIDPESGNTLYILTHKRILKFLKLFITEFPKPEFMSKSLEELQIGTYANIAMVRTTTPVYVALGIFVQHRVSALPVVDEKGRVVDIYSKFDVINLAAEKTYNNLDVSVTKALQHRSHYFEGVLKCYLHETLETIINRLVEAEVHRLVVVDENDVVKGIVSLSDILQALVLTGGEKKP
Procedure: (§3) Top: AMPK activity (mean ± SEM, n = 4); bottom: western blots showing phosphorylation of Thr172 on AMPK, and of ERK1/2, in cells treated with DMSO (control), SU6656 (100 μM), or PP2 (100 nM) (n = 2). (B) As (A), but in SYF cells. (C) HeLa cells were transfected with DNAs encoding GFP alone, or GFP fused to WT, Y261F/Y365F (FF), or Y36F/Y261F/Y365F (FFF) mutants of LKB1; cells were treated with increasing concentrations of SU6656 for 1 hr and AMPK activity determined (mean ± SEM, n = 4). See also Figure S1. (D) HEK293 cells were transfected with DNAs encoding FLAG-tagged AMPK-α2 with or without a Y436F mutation. Cells were incubated with DMSO (control), 100 μM SU6656, 10 mM phenformin, or 10 μM A23187 for 1 hr; AMPK complexes were immunoprecipitated using anti-FLAG antibody and assayed. The top panels show kinase activities (mean ± SD, n = 3); the bottom panels show blots from the same experiment (n = 2). In all panels, asterisks indicate significant differences from DMSO controls; in (D), there were no significant differences between the WT and Y463F mutant. **p < 0.01, ****p < 0.0001.

[2] = biological target: T2, endogenous full-length α1 complexes (Homo sapiens, UniProt Q13131); experiment: Activity of endogenous full-length α1 complexes in HEK293 cells; type: cell-based; conditions: 1 hr
T2 construct: endogenous in cells
T2 sequence (Q13131 whole entry): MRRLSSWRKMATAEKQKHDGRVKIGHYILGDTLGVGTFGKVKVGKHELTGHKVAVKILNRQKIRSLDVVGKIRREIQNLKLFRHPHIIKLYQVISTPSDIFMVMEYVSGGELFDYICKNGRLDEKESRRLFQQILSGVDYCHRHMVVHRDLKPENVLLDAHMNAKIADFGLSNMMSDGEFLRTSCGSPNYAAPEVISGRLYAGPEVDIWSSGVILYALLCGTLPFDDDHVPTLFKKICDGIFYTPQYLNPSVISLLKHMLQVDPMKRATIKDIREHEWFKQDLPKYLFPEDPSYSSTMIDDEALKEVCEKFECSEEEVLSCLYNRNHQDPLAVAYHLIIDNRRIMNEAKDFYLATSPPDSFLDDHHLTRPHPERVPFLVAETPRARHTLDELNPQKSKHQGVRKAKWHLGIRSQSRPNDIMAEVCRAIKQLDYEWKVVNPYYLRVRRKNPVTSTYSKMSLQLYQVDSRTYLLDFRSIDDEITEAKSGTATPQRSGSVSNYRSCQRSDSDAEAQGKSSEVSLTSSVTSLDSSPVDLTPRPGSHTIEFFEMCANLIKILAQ
T2 sequence (P54619 whole entry partner): as the sequence (P54619 whole entry partner, the tested form may be a part) above
Source text: as §1, §2

[3] = biological target: T3, human AMPK-α2 Y436F mutant (Homo sapiens, UniProt P54646, Y436F); experiment: AMPK activity of FLAG-tagged Y436F AMPK-α2 expressed in HEK293 cells; type: cell-based; conditions: SU6656 100 μM, phenformin 10 mM, A23187 10 μM, 1 hr
T3 construct: expressed in transfected cells; host or cells: HEK293 (transient transfection)
T3 sequence (P54646 whole entry Y436F): as the sequence (P54646 whole entry, the tested form may be a part) above, with Y436F counted along it
T3 sequence (P54619 whole entry partner): as the sequence (P54619 whole entry partner, the tested form may be a part) above
Procedure: as §3

AMPK-α1 (WT) = biological target: T4, AMPK-α1 (WT) (Homo sapiens, UniProt Q13131); experiment: AMPK activity of FLAG-tagged AMPK-α1 (WT) expressed in HEK293 cells; type: cell-based; conditions: 1 hr; for AMPK activity: WT FLAG-α1 (comparison with AT mutant)
T4 construct: we expressed FLAG-tagged full-length AMPK-α1 either as the WT or the AT mutant; expressed in transfected cells; host or cells: HEK293
T4 sequence (Q13131 whole entry): as the sequence (Q13131 whole entry) above
T4 sequence (P54619 whole entry partner): as the sequence (P54619 whole entry partner, the tested form may be a part) above
Source text: (§4) (B) Western blotting of the same preparations as in (A). […] (D) Allosteric activation of WT and mutant α1β1γ1 complexes by MT 63-78, curve fitting as for (C). […] (E) Allosteric activation of WT and mutant α1β1γ1 complexes by AMP. Data were fitted to the equation for activation/inactivation by AMP ([Gowans et al., 2013]). […] (F) Activation of WT and AA mutant by various AMPK activators in HEK293 cells. […] FLAG-tagged complexes were isolated by immunoprecipitation and AMPK activity determined (mean ± SEM, n = 2).
(§5) We next expressed the FLAG-tagged WT or AA mutant of AMPK-α1 by transient transfection in HEK293 cells, treated with various agents, and measured AMPK activity in anti-FLAG immunoprecipitates. In Figure 4F, the results are expressed as absolute activities and are accompanied by blots showing Thr172 phosphorylation.
The α1-KD was precipitated using anti-FLAG and endogenous AMPK complexes using anti-α1 antibody, and activity determined. […] (B) Western blots (n = 2) using the indicated antibodies; samples from experiment in (A). (C) DNAs encoding FLAG-tagged AMPK-α1 (WT or AT mutant) were expressed by transient transfection in HEK293 cells, the cells treated with increasing concentrations of SU6656 for 1 hr, AMPK complexes precipitated with anti-FLAG, and activity measured.

AMPK-α1 AT mutant = biological target: T5, AMPK-α1 AT mutant (Homo sapiens, UniProt Q13131, A167T); experiment: AMPK activity of FLAG-tagged AMPK-α1 AT mutant expressed in HEK293 cells; type: cell-based; conditions: AT mutant FLAG-α1, 1 hr
T5 construct: we expressed FLAG-tagged full-length AMPK-α1 either as the WT or the AT mutant; expressed in transfected cells; host or cells: HEK293 (transient transfection)
T5 sequence (Q13131 whole entry A167T): as the sequence (Q13131 whole entry) above, with A167T counted along it
T5 sequence (P54619 whole entry partner): as the sequence (P54619 whole entry partner, the tested form may be a part) above
Source text: as §2
To confirm that it acted by binding at the catalytic site, we expressed FLAG-tagged full-length AMPK-α1 either as the WT or the AT mutant.

AMPK-γ2 (WT) = biological target: T6, AMPK-γ2 (WT) (Homo sapiens, UniProt Q9UGJ0); experiment: AMPK activity in HEK293 cells expressing WT AMPK-γ2; type: cell-based; conditions: 1 hr
T6 construct: expressed in transfected cells; host or cells: Flp-In T-REx 293 (HEK293), tetracycline-inducible
T6 sequence (Q9UGJ0 whole entry): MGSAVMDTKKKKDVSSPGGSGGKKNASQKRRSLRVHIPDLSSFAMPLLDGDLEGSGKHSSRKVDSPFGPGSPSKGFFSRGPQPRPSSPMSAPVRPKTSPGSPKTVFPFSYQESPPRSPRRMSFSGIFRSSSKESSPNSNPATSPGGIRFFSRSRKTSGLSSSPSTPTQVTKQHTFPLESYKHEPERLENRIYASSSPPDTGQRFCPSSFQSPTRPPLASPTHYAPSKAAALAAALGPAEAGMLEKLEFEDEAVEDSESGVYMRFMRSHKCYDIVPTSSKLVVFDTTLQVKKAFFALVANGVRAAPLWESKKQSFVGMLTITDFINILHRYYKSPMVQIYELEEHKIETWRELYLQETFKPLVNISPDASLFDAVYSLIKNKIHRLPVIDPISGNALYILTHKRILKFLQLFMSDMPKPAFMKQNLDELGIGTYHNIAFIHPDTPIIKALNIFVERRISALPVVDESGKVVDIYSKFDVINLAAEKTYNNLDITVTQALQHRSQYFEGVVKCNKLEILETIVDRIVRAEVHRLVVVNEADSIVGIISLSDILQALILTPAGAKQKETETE
Source text: (§6) The next possibility was that, like several other AMPK-activating drugs, SU6656 inhibits mitochondrial ATP synthesis, and thus activates AMPK indirectly by increasing cellular AMP/ADP. To test this, we used cell lines inducibly expressing either WT AMPK-γ2 or an AMP/ADP-resistant R531G (RG) mutant ([Hawley et al., 2010]). […] There were no effects of SU6656 on cellular oxygen uptake, unlike berberine. Subsequent addition of the uncoupler 2,4-dinitrophenol (DNP), which prevents the respiratory chain from being limited by ADP supply, increased oxygen uptake identically in control and SU6656-treated cells but had no effect following berberine, as expected for a complex I inhibitor (Figure S2).
(§7) (B) WT or RG cells were treated as in (A) and nucleotides extracted for analysis (mean ± SD, n = 3). […] (E) (See also Figure S2) Time courses of cellular oxygen uptake before and after addition of the indicated concentrations of sorafenib (SO, μM), SU6656 (100 μM) or phenformin (PHEN, 10 mM) (mean ± SEM, n = 4). (F) Effect of various concentrations of sorafenib or phenformin (10 mM) on activation (top, mean ± SEM, n = 3) or phosphorylation (bottom) of AMPK in cells expressing wild-type AMPK-γ2 (WT) or the R531G mutant AMPK-γ2 (RG). In all panels, asterisks show significant differences from DMSO controls (ns, not significant). In (B), daggers (†) show significant differences between results in WT and RG cells. *p < 0.05, **p < 0.01, ***p < 0.001, ****p < 0.0001, ^††††p < 0.0001.
(§8) HEK-293 cells stably expressing tetracycline-inducible FLAG-tagged human AMPK-γ2, or an R531G mutant, were generated by introducing the corresponding DNAs into Flp-In™ T-REx™ 293 cells ([Auciello et al., 2014]). Expression of the FLAG-tagged constructs was induced for 48 hr using tetracycline (1 μg.ml^-1) prior to addition of compounds under test. Transient transfections were carried out 36-48 hr prior to experiments, using Fugene 6 according to manufacturers’ instructions.

[4] = biological target: T7, human α1β1γ1 complex with K40A/K42A (AA) mutations in α1 (Homo sapiens, UniProt P54619+Q13131+Q9Y478, K40A/K42A); experiment: Allosteric activation of α1β1γ1 complex, K40A/K42A (AA) mutant; type: biochemical
T7 construct: made in house; host or cells: Escherichia coli
T7 sequence (Q13131 whole entry K40A/K42A): as the sequence (Q13131 whole entry) above, with K40A, K42A counted along it
T7 sequence (Q9Y478 whole entry): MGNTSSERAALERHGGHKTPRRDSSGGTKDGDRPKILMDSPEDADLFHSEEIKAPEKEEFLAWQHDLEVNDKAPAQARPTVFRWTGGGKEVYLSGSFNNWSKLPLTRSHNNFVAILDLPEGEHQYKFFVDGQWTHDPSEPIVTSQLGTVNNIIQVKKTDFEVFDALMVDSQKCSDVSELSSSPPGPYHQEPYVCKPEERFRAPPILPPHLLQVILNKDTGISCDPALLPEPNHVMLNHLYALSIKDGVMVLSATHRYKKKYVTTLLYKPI
T7 sequence (P54619 whole entry): as the sequence (P54619 whole entry partner, the tested form may be a part) above
Source text: (§9) We next tested whether SU6656 activates AMPK by binding at the ADaM site. […] We therefore expressed WT or single (K40A, K42A) or double (K40A/K42A, AA) α1 mutants in the context of the human α1β1γ1 complex (Figure 4A).
as §4
(§10) Endogenous AMPK was immunoprecipitated using the specified antibodies (for total AMPK, an equal mixture of anti-α1 and –α2 antibodies) and assayed at 200 μM ATP ([Hardie et al., 2000], [Towler et al., 2008]) using the AMARA peptide ([Dale et al., 1995]) as substrate, except for assays of allosteric activation by AMP (Figure 5A) where the SAMS peptide was used as substrate with 2 mM ATP ([Gowans et al., 2013]). The AMPK-related kinases SIK1, SIK2, SIK3, SNARK, MARK2/3 and MARK4 were immunoprecipitated and assayed as previously described ([Lizcano et al., 2004]) in lysates of Hela cells stably expressing LKB1 ([Fogarty et al., 2010]). LKB1 was assayed using the LKBtide peptide as substrate ([Sakamoto et al., 2004]).
(§11) Data were fitted to the specified equations by non-linear regression using GraphPad Prism 6 for Mac OSX.

[5] = biological target: T8, human α1β1γ1 complex with K42A mutation in α1 (Homo sapiens, UniProt P54619+Q13131+Q9Y478, K42A); experiment: Allosteric activation of α1β1γ1 complex, K42A mutant; type: biochemical
T8 construct: made in house; host or cells: Escherichia coli
T8 sequence (Q13131 whole entry K42A): as the sequence (Q13131 whole entry) above, with K42A counted along it
T8 sequence (Q9Y478 whole entry): as the sequence (Q9Y478 whole entry) above
T8 sequence (P54619 whole entry): as the sequence (P54619 whole entry partner, the tested form may be a part) above
Source text: as §9, §4, §10, §11

[6] = biological target: T9, AMPK-γ2 R531G (RG) mutant (Homo sapiens, UniProt Q9UGJ0, R531G); experiment: AMPK activity in HEK293 cells expressing R531G AMPK-γ2; type: cell-based; conditions: 1 hr
T9 construct: expressed in transfected cells
T9 sequence (Q9UGJ0 whole entry R531G): as the sequence (Q9UGJ0 whole entry) above, with R531G counted along it
Source text: as §6, §7, §8

AMPK-α1 AA mutant = biological target: T10, AMPK-α1 AA mutant (Homo sapiens, UniProt Q13131, K40A/K42A); experiment: AMPK activity of FLAG-tagged AMPK-α1 K40A/K42A (AA) mutant expressed in HEK293 cells; type: cell-based; conditions: AA mutant FLAG-α1; same concentrations, 1 hr
T10 construct: Plasmid encoding full-length human AMPK-α1; expressed in transfected cells; host or cells: HEK293
T10 sequence (Q13131 whole entry K40A/K42A): as the sequence (Q13131 whole entry) above, with K40A, K42A counted along it
T10 sequence (P54619 whole entry partner): as the sequence (P54619 whole entry partner, the tested form may be a part) above
Source text: as §4, §5

human α1β1γ1 complex = biological target: T11, human α1β1γ1 complex (Homo sapiens, UniProt P54619+Q13131+Q9Y478); experiment: Allosteric activation of bacterially expressed human α1β1γ1 complex, WT; type: biochemical
T11 construct: made in house; host or cells: Escherichia coli
T11 sequence (Q13131 whole entry): as the sequence (Q13131 whole entry) above
T11 sequence (Q9Y478 whole entry): as the sequence (Q9Y478 whole entry) above
T11 sequence (P54619 whole entry): as the sequence (P54619 whole entry partner, the tested form may be a part) above
Source text: as §9, §4, §10, §11

[7] = biological target: T12, human α1β1γ1 complex with K40A mutation in α1 (Homo sapiens, UniProt P54619+Q13131+Q9Y478, K40A); experiment: Allosteric activation of α1β1γ1 complex, K40A mutant; type: biochemical
T12 construct: made in house; host or cells: Escherichia coli
T12 sequence (Q13131 whole entry K40A): as the sequence (Q13131 whole entry) above, with K40A counted along it
T12 sequence (Q9Y478 whole entry): as the sequence (Q9Y478 whole entry) above
T12 sequence (P54619 whole entry): as the sequence (P54619 whole entry partner, the tested form may be a part) above
Source text: as §9, §4, §10, §11

T1 sequence (Q13131 1-312): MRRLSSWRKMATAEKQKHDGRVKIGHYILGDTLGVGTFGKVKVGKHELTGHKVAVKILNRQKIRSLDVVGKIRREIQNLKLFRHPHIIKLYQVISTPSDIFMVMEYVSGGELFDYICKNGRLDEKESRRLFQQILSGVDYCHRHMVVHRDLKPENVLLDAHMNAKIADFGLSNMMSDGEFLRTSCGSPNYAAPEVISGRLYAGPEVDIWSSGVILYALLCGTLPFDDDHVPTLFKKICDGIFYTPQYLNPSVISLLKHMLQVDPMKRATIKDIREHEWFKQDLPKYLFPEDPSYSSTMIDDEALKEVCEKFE

## CNc1ccc2oc(C[C@H]3O[C@@]4(CC[C@H]3C)O[C@H]([C@H](C)C(=O)c3ccc[nH]3)[C@H](C)C[C@H]4C)nc2c1C(=O)O [A23187]
[1]
  kinase activity / Thr172 phosphorylation: also observed
Human AMPK-α2 (WT)
  AMPK activity in anti-FLAG immunoprecipitates: all activated AMPK
[2]
  kinase activity / Thr172 phosphorylation: also observed
[3]
  AMPK activation response with Y436F mutation: unaffected by the Y436F mutation
AMPK-α1 (WT)
  AMPK activity: activated equally well
AMPK-α1 AT mutant
  AMPK activity: activated equally well

## N#Cc1c(O)c2c(-c3ccc(-c4ccccc4O)cc3)csc2[nH]c1=O [A769662]
AMPK-γ2 (WT)
  AMPK activity: activated AMPK in both
[4]
  Activation (maximal allosteric activation): 1.0 ± 0.03 fold
  EC50: 1 ± 2 nM
[2]
  kinase activity / Thr172 phosphorylation: not statistically significant
[5]
  Activation (maximal allosteric activation): 21 ± 0.6 fold
[6]
  AMPK activity: activated AMPK in both
AMPK-α1 AA mutant
  effect of AA mutation on AMPK activation: completely prevented
Human α1β1γ1 complex; not phosphorylated on Thr172, relative to basal activity
  Activation (maximal allosteric activation): 38 ± 1 fold
Human α1β1γ1 complex; read-out: EC50 (concentration causing half-maximal effect)
  EC50: 1000 ± 100 nM
AMPK-α1 (WT)
  AMPK activity: did not cause a significant activation
AMPK-α1 (WT); WT FLAG-α1, A769662 300 μM, berberine 300 μM, phenformin 10 mM, troglitazone 100 μM, oligomycin 1 μM, SU6656 100 μM
  AMPK activity and Thr172 phosphorylation: activated AMPK and caused Thr172 phosphorylation
[7]
  Activation (maximal allosteric activation): 18 ± 0.7 fold
  EC50: 4000 ± 700 nM

From PMC5522529, “Mechanisms of Paradoxical Activation of AMPK by the Kinase Inhibitors SU6656 and Sorafenib” (Cell Chemical Biology, 2017)
